According to article PMC10720538, “Population pharmacokinetic modeling and target attainment analyses of rezafungin for the treatment of candidemia and invasive candidiasis” (Antimicrobial Agents and Chemotherapy, 2023):
*1 amine or outer side, *2 acyl side, *3 side chain or, on linkers, in order; H or OH if unused. Where a SMILES comes first, the peptide text is derived from it. Bridges are numbered along the chain shown (N, C = ends). [ ]: non-standard residue; d: D form. The star is where a group is joined. Orn(4R-OH,5R-OCH2CH2NMe3+) = C[N+](C)(C)CCO[C@@H](N[*:3])[C@H](O)C[C@H](N[*:1])C(=O)[*:2]; pTerphenylCO(4''-OnC5H11) = CCCCCOc1ccc(-c2ccc(-c3ccc(C(=O)*)cc3)cc2)cc1; hTyr(3S-OH,4S-OH) = N[C@H](C(=O)O)[C@H](O)[C@@H](O)c1ccc(O)cc1; Pro(3S-OH,4S-Me) = C[C@H]1CN[C@H](C(=O)O)[C@H]1O; Hyp = O=C(O)[C@@H]1C[C@@H](O)CN1

Key:
Candida parapsilosis = settings: ref Lepak et al., 2018 (e02154-17), cited from earlier work
Method: TABLE 4 Nonclinical pharmacokinetic/pharmacodynamic targets, by species^a^,^b^,^c | column: Method; Stasis / fAUC0–168h/MIC median || FIG 4 Probability of pharmacokinetic/pharmacodynamic target attainment for 400 mg rezafungin against Candida species using CLSI methodology. f, free. […] This has been observed for other echinocandins and appears to be limited to nonclinical testing as C. parapsilosis responds well clinically to echinocandin therapy despite the intrinsically elevated MICs of this species ([29]). It is believed that the C. parapsilosis strains utilized in the model (more than 80% of which were not suitable) are highly fit or virulent and therefore may result in elevated targets ([30]).

[1] = Simulated exposure measures after a single 400 mg dose from individual Bayesian PK estimates, with forest plots of covariate effects; assay type: in vivo, human; settings: for Half-life: from simulated concentrations during week 2 after the last dose; for Clearance: individual model-based estimates (CL); for AUC0–168h / Cmax / Cmin, 168h: single 400 mg IV dose, simulated; for Total volume of distribution at steady state: sum of individual model-based central and peripheral volumes
Method: To illustrate the relative differences in the impact of the covariates included in the final model on the exposure of rezafungin, forest plots were constructed using simulated exposure for the subjects in the analysis data set, following a single dose of 400 mg. […] Though statistically significant and included in the final model, the GMR rezafungin exposure and 90% CI of each covariate effect were not far outside of the default no effect bounds of 0.8 and 1.25.
Age was not determined to be a significant covariate of rezafungin exposure. Sixty-three patients were aged 65 years or older, with the oldest patient being […]. Thirty-eight patients were aged 65 to <75, and 25 patients were aged 75 to 89 years old. The GMR (90% CI) of AUC0–168h of these two age groups were 0.95 (0.85, 1.05) and 1.20 (1.06, 1.36), respectively, compared to patients 24 to <65 years old (n = 104). The change in exposure in patients 65 years or older is not deemed clinically meaningful.
The final PK model of rezafungin, the individual empirical Bayesian PK parameter estimates, and the individual dosing histories were used to simulate dense PK profiles for each subject using the R package mrgsolve ([33]).

[2] = cited from earlier work
Method: FIG 4 Probability of pharmacokinetic/pharmacodynamic target attainment for 400 mg rezafungin against Candida species using CLSI methodology. f, free. TEXT PRINTED IN THE PICTURE: no label printed: Candida albicans − fAUC/MIC Targets: CLSI Target: Stasis 20.5; Candida albicans − fAUC/MIC Targets: CLSI Target: 1-Log Drop in CFU 37.2; Candida glabrata − fAUC/MIC Targets: CLSI Target: Stasis 0.5; Candida glabrata − fAUC/MIC Targets: CLSI Target: 1-Log Drop in CFU 2.94; Candida parapsilosis − fAUC/MIC Targets: CLSI Target: Stasis 18.2; Candida auris − fAUC/MIC Targets: CLSI Target: Stasis 12.1; Can ... || It is noted that the target attainment (TA) methodology uses the simulated fAUC0–168h/MIC ratios; therefore, the value of plasma protein binding (PPB) influences this analysis. The free fraction of rezafungin used in the analysis was 2.6%, obtained from measuring PPB in plasma from healthy subjects. […] While there are still questions in the scientific community about how to verify information from the nonclinical model to support PK/PD-b ... || Using each simulated patient’s Bayesian PK parameters and dose amounts, simulations were performed to obtain plasma concentration profiles. […] For the purposes of target attainment analyses, AUC0–168h after the first dose was used (day 1). […]

[3] = healthy subjects, n = 94, geometric mean (geometric %CV)
[4] = healthy subjects, n = 94, mean (SD), SD
[5] = hepatic impairment, uninfected, n = 16, geometric mean (geometric %CV)
[6] = hepatic impairment, uninfected, n = 16, mean (SD), SD
[7] = patients, n = 167, geometric mean (geometric %CV)
[8] = patients, n = 167, mean (SD), SD

In the case of `CCCCCOc1ccc(-c2ccc(-c3ccc(C(=O)N[C@H]4C[C@@H](O)[C@@H](OCC[N+](C)(C)C)NC(=O)[C@@H]5[C@@H](O)[C@@H](C)CN5C(=O)[C@H]([C@@H](C)O)NC(=O)[C@H]([C@H](O)[C@@H](O)c5ccc(O)cc5)NC(=O)[C@@H]5C[C@@H](O)CN5C(=O)[C@H]([C@@H](C)O)NC4=O)cc3)cc2)cc1` [rezafungin] ({pTerphenylCO(4''-OnC5H11)}-[Orn(4R-OH,5R-OCH2CH2NMe3+)]T[Hyp][hTyr(3S-OH,4S-OH)]T[Pro(3S-OH,4S-Me)]; lactam 1-C), the “Stasis, fAUC0–168h/MIC median” value (Candida parapsilosis; CLSI MIC, net fungal stasis, neutropenic mouse) is given as 18.2, the maximum effect (Candida parapsilosis; nonclinical model) is given as “only achieved stasis” and the Half-life [1, 3] is given as 143.368 (9.737) h. For the same molecule, the Half-life [1, 4] was 144.039 (14.027) h, the Half-life [1, 5] was 132.827 (9.457) h and the Half-life [1, 6] was 133.372 (12.249) h. The Half-life [1, 7] was 149.458 (18.095) h, the Half-life [1, 8] was 151.960 (29.086) h and the Clearance [1, 3] was 0.229 (20.266) L/h. For the same molecule, the Clearance [1, 4] was 0.234 (0.048) L/h, the Clearance [1, 5] was 0.336 (21.829) L/h and the Clearance [1, 6] was 0.343 (0.077) L/h. The Clearance [1, 7] was 0.328 (38.396) L/h, the Clearance [1, 8] was 0.350 (0.130) L/h and the “AUC0–168h” value [1, 3] was 1,070.513 (20.149) μg × h/mL. The Cmax [1, 3] was 21.725 (22.466) μg/mL, the “Cmin, 168h” value [1, 3] was 3.247 (22.858) μg/mL and the “AUC0–168h” value [1, 4] was 1,091.512 (215.164) μg × h/mL. The Cmax [1, 4] was 22.244 (4.789) μg/mL, the “Cmin, 168h” value [1, 4] was 3.329 (0.741) μg/mL and the “AUC0–168h” value [1, 5] was 778.250 (19.012) μg × h/mL. The Cmax [1, 5] was 17.061 (16.797) μg/mL, the “Cmin, 168h” value [1, 5] was 2.113 (25.916) μg/mL and the “AUC0–168h” value [1, 6] was 791.452 (152.248) μg × h/mL. The Cmax [1, 6] was 17.291 (3.017) μg/mL, the “Cmin, 168h” value [1, 6] was 2.176 (0.533) μg/mL and the “AUC0–168h” value [1, 7] was 752.507 (35.100) μg × h/mL. The Cmax [1, 7] was 17.715 (35.418) μg/mL, the “Cmin, 168h” value [1, 7] was 2.097 (43.351) μg/mL and the “AUC0–168h” value [1, 8] was 798.607 (295.120) μg × h/mL. The Cmax [1, 8] was 18.761 (6.448) μg/mL, the “Cmin, 168h” value [1, 8] was 2.292 (1.072) μg/mL and the “Fold change in AUC0-168h relative to reference, GMR (90% CI)” value ([1]; single 400 mg dose, Phase 2/3 patients, BMI obese (≥30 kg/m^2), n = 36, vs optimum BMI) was 0.77 (0.69, 0.86). The “Fold change in AUC0-168h relative to reference, GMR (90% CI)” value ([1]; single 400 mg dose, Phase 2/3 patients, BMI overweight (25 to <30 kg/m^2), n = 40, vs optimum BMI) was 0.84 (0.75, 0.94), the “Fold change in AUC0-168h relative to reference, GMR (90% CI)” value ([1]; single 400 mg dose, Phase 2/3 patients, BMI underweight (<18.5 kg/m^2), n = 17, vs optimum BMI) was 1.03 (0.88, 1.20) and the “Fold change in AUC0-168h relative to reference, GMR (90% CI)” value ([1]; single 400 mg dose, Phase 2/3 patients, age (y) [65,75), n = 38, vs 24 to <65 years) was 0.95 (0.85, 1.05). For the same molecule, the “Fold change in AUC0-168h relative to reference, GMR (90% CI)” value ([1]; single 400 mg dose, Phase 2/3 patients, age (y) [75,89], n = 25, vs 24 to <65 years) was 1.20 (1.06, 1.36), the “higher AUC0–168h in female subjects” value ([1]; single 400 mg dose, Phase 2/3 patients, female vs male) was 21% and the “Fold change in AUC0-168h relative to reference, GMR (90% CI)” value ([1]; single 400 mg dose, Phase 2/3 patients, kidney failure (CrCL <15 mL/min) vs normal renal function) was 1.16 (0.96, 1.39). The “Fold change in AUC0-168h relative to reference, GMR (90% CI)” value ([1]; single 400 mg dose, Phase 2/3 patients, mild renal impairment (CrCL 60 to 89 mL/min) vs normal renal function) was 0.95 (0.85, 1.06), the “Fold change in AUC0-168h relative to reference, GMR (90% CI)” value ([1]; single 400 mg dose, Phase 2/3 patients, moderate renal impairment (CrCL 30 to 59 mL/min) vs normal renal function) was 1.23 (1.11, 1.36) and the “Fold change in AUC0-168h relative to reference, GMR (90% CI)” value ([1]; single 400 mg dose, Phase 2/3 patients, severe renal impairment (CrCL 15 to 29 mL/min) vs normal renal function) was 1.01 (0.88, 1.16). The “Total volume of distribution at steady state” value (shortened to “Total volume of distribution”) [1, 3] was 42.312 (22.744) L, the “Total volume of distribution” value [1, 4] was 43.410 (10.265) L and the “Total volume of distribution” value [1, 5] was 56.279 (19.744) L. The “Total volume of distribution” value [1, 6] was 57.264 (10.702) L, the “Total volume of distribution” value [1, 7] was 62.434 (40.964) L and the “Total volume of distribution” value [1, 8] was 67.451 (27.744) L. The Protein binding ([2]; human (presumed healthy) plasma) was 97.4% and the free fraction ([2]; plasma from healthy subjects, used to calculate fAUC0–168h) was 2.6%.
